Experiments:
Assay in all cases: radiometric filter-binding kinase assay
PIM2 (human) = PIM2 (human) (UniProt Q9P1W9)
PAK7 (human) = PAK7 (human) (UniProt Q9P286)
IKBKB (human) = IKBKB (human) (UniProt O14920)
RPS6KA5 KD1 KD2 (human) = RPS6KA5 KD1 KD2 (human) (UniProt O75582)
NEK6 (human) = NEK6 (human) (UniProt Q9HC98)
IKBKE (human) = IKBKE (human) (UniProt Q14164)
MAPK3 (human) = MAPK3 (human) (UniProt P27361)
BTK (human) = BTK (human) (UniProt Q06187)
EPHA4 (human) = EPHA4 (human) (UniProt P54764); settings: compound 0.1 µM
MAP2K1 (human) = MAP2K1 (human) (UniProt Q02750)
RIPK2 (human) = RIPK2 (human) (UniProt O43353); settings: compound 0.1 µM
NEK2 (human) = NEK2 (human) (UniProt P51955)
MAPK15 (human) = MAPK15 (human) (UniProt Q8TD08)
CHEK2 (human) = CHEK2 (human) (UniProt O96017)
RPS6KA1 KD1 KD2 (human) = RPS6KA1 KD1 KD2 (human) (UniProt Q15418)
SRC (human) = SRC (human) (UniProt P12931)
INSRR (human) = INSRR (human) (UniProt P14616)
MAPK1 (human) = MAPK1 (human) (UniProt P28482)
RPS6KA3 KD1 KD2 (human) = RPS6KA3 KD1 KD2 (human) (UniProt P51812)
CSNK1D (human) = CSNK1D (human) (UniProt P48730)
CSK (human) = CSK (human) (UniProt P41240)
MAPKAPK3 (human) = MAPKAPK3 (human) (UniProt Q16644); settings: compound 0.1 µM
PRKAA1 or PRKAA2 (rat) = settings: accession and sequence are those of the human protein
PLK1 (human) = PLK1 (human) (UniProt P53350)
FLT1 (human) = FLT1 (human) (UniProt P17948)
EPHB1 (human) = EPHB1 (human) (UniProt P54762); settings: compound 0.1 µM
CDK2 CCNA2 (human) = CDK2 CCNA2 (human) (UniProt P20248+P24941)
TTK (human) = TTK (human) (UniProt P33981)
[1] = system: RPS6KB1 (human), P23443 [T412E]
[2] = system: AKT2 (human), P31751 [S474D]
EPHB4 (human) = EPHB4 (human) (UniProt P54760); settings: compound 0.1 µM
SYK (human) = SYK (human) (UniProt P43405)
PRKACA (human) = PRKACA (human) (UniProt P17612)
MKNK2 (human) = MKNK2 (human) (UniProt Q9HBH9)
MAPK14 (human) = MAPK14 (human) (UniProt Q16539)

Chain of FLT1 (human) (P17948 whole entry, looked up): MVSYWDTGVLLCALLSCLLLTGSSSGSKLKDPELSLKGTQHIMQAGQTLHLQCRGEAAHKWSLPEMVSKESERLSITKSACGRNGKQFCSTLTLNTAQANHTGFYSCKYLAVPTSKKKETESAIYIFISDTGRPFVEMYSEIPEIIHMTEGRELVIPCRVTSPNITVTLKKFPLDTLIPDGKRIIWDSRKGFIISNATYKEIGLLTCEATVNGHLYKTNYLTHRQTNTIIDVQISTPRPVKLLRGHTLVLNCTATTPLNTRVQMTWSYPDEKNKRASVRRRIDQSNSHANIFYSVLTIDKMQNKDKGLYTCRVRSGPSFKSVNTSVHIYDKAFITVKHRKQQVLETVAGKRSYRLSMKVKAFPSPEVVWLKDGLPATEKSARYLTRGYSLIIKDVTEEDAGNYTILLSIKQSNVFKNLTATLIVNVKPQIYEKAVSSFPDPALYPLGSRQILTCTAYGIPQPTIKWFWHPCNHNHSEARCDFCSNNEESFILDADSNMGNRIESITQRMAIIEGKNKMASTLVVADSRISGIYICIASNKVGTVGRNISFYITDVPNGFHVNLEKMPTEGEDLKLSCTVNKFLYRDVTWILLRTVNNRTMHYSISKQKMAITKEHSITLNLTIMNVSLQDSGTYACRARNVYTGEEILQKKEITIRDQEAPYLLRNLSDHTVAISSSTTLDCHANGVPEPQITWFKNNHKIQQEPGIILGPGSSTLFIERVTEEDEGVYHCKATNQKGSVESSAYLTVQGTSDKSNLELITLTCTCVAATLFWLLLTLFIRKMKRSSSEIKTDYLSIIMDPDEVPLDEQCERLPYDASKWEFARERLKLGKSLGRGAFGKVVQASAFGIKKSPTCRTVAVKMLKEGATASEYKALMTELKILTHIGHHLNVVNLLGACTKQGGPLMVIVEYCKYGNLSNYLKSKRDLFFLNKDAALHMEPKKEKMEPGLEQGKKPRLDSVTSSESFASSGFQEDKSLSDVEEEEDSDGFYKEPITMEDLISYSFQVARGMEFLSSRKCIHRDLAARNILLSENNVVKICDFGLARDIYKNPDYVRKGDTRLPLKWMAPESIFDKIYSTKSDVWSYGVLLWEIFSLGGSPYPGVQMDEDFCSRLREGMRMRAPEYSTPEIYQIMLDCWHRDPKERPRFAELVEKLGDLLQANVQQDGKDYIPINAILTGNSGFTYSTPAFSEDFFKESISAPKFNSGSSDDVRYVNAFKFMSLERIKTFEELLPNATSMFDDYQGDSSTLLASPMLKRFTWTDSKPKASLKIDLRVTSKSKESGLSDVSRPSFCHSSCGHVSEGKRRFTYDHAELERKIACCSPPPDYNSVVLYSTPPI
Chain of PAK7 (human) (Q9P286 whole entry, looked up): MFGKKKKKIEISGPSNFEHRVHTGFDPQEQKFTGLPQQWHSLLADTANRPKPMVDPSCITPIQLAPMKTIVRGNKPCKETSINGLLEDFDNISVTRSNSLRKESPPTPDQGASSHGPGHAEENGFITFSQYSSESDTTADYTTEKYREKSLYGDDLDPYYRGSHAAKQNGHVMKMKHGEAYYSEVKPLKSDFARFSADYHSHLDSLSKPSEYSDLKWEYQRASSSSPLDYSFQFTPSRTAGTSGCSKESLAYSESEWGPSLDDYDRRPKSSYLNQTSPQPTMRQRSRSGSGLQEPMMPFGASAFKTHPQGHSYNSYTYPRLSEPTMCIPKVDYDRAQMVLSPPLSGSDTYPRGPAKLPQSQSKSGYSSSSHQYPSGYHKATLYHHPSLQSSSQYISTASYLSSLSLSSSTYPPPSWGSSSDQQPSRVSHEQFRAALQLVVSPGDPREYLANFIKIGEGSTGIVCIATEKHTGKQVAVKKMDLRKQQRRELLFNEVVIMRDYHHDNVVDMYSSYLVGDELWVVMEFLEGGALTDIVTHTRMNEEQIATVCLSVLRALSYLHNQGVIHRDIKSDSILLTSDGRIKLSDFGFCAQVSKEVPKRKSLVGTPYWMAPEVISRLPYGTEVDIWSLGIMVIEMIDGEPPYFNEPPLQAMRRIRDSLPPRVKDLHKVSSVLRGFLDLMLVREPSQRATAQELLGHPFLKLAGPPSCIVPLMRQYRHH
Chain of MAPK1 (human) (P28482 whole entry, looked up): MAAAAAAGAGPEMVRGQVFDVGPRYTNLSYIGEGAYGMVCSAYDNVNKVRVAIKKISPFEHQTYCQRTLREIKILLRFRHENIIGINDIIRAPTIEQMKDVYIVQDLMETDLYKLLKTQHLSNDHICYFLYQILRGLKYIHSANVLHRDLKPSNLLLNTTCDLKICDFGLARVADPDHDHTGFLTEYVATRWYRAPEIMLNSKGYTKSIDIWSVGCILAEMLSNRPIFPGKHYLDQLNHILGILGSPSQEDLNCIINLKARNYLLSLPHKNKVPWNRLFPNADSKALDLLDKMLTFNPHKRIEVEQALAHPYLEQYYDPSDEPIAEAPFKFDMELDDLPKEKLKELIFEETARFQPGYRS
Chain of MAPK15 (human) (Q8TD08 whole entry, looked up): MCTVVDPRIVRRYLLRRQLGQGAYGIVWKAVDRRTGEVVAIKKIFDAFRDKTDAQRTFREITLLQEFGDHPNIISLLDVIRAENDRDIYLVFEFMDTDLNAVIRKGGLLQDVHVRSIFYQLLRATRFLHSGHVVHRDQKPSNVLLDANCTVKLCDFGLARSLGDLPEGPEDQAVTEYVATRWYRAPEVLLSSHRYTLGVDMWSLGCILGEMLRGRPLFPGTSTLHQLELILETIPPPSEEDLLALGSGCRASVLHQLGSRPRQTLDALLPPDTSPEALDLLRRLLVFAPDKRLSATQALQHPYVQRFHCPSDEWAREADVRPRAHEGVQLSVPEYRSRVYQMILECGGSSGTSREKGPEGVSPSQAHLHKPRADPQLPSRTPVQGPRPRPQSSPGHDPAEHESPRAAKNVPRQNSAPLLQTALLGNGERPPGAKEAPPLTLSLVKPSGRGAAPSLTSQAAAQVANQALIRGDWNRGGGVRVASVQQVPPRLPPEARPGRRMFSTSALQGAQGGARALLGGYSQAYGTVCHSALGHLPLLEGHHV
Chain of AKT2 (human), P31751 [S474D] (P31751 whole entry S474D, looked up): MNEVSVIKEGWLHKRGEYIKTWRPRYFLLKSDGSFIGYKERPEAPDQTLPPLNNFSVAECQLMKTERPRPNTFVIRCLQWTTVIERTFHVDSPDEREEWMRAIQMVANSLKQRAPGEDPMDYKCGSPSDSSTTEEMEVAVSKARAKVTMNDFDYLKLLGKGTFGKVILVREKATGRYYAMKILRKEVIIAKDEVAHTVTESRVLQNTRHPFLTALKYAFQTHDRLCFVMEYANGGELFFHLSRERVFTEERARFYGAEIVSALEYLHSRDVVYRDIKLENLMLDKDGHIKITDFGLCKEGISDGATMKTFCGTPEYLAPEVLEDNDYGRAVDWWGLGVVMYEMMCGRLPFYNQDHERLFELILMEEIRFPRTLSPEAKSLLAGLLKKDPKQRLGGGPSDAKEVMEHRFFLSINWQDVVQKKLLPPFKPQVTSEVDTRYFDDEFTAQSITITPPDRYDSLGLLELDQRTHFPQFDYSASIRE
Chain of MKNK2 (human) (Q9HBH9 whole entry, looked up): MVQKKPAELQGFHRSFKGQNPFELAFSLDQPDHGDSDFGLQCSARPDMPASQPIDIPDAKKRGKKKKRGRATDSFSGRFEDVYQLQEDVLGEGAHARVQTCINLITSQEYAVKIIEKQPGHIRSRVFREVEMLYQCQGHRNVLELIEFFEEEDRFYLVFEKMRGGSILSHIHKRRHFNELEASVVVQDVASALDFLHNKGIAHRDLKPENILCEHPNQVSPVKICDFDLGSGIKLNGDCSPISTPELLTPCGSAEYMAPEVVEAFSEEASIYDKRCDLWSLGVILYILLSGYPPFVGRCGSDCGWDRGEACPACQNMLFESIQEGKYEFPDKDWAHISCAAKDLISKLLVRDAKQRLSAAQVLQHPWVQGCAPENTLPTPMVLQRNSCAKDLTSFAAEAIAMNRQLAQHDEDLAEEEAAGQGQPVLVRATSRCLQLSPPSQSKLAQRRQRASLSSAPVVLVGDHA
Chain of PLK1 (human) (P53350 whole entry, looked up): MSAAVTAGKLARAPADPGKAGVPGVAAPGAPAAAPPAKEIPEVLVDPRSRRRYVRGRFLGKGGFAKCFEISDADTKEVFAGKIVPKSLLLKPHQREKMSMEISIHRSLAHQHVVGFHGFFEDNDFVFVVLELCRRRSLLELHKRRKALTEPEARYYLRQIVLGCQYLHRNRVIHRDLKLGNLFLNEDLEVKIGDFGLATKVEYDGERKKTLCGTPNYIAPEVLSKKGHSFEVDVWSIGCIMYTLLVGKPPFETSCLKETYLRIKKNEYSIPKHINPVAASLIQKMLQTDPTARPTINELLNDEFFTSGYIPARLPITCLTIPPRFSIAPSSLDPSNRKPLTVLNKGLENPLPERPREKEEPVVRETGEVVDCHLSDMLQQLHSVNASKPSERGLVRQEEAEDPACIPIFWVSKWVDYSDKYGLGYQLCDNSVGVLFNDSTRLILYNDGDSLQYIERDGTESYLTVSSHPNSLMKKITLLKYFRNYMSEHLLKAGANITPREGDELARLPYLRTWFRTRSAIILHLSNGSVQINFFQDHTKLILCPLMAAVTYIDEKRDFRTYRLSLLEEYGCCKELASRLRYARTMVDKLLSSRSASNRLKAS
Chain of RPS6KB1 (human), P23443 [T412E] (P23443 whole entry T412E, looked up): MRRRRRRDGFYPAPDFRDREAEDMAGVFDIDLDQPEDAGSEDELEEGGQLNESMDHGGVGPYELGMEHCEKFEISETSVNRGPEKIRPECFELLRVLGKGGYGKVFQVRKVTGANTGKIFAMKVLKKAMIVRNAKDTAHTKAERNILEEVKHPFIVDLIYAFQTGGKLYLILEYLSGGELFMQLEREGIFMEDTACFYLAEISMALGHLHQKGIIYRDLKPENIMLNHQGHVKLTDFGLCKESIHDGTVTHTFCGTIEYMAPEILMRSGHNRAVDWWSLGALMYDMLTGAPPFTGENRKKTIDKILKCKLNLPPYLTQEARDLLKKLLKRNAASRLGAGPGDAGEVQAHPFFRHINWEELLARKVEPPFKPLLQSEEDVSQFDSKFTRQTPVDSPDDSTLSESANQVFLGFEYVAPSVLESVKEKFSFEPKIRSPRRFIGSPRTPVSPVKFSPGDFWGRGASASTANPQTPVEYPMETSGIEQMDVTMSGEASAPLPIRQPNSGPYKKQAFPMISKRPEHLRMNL

O=C(O)c1ccc(-c2c[nH]c3ncc(-c4ccccc4)cc23)cc1C1CCCC1
residual activity (PIM2 (human); compound 0.1 µM): 104%
residual activity (PIM2 (human); compound 1.0 µM): 92%
residual activity (PIM2 (human); compound 10.0 µM): 75%
residual activity (PAK7 (human); compound 0.1 µM): 110%
residual activity (PAK7 (human); compound 1.0 µM): 88%
residual activity (PAK7 (human); compound 10.0 µM): 38%
residual activity (IKBKB (human); compound 0.1 µM): 94%
residual activity (IKBKB (human); compound 1.0 µM): 97%
residual activity (IKBKB (human); compound 10.0 µM): 64%
residual activity (RPS6KA5 KD1 KD2 (human); compound 0.1 µM): 94%
residual activity (RPS6KA5 KD1 KD2 (human); compound 1.0 µM): 103%
residual activity (RPS6KA5 KD1 KD2 (human); compound 10.0 µM): 62%
residual activity (NEK6 (human); compound 0.1 µM): 104%
residual activity (NEK6 (human); compound 10.0 µM): 107%
residual activity (IKBKE (human); compound 0.1 µM): 91%
residual activity (IKBKE (human); compound 1.0 µM): 44%
residual activity (IKBKE (human); compound 10.0 µM): 14%
residual activity (MAPK3 (human); compound 0.1 µM): 105%
residual activity (MAPK3 (human); compound 1.0 µM): 75%
residual activity (MAPK3 (human); compound 10.0 µM): 39%
residual activity (BTK (human); compound 0.1 µM): 89%
residual activity (BTK (human); compound 1.0 µM): 96%
residual activity (EPHA4 (human)): 103%
residual activity (MAP2K1 (human); compound 0.1 µM): 105%
residual activity (MAP2K1 (human); compound 1.0 µM): 34%
residual activity (MAP2K1 (human); compound 10.0 µM): 12%
residual activity (RIPK2 (human)): 55%
residual activity (NEK2 (human); compound 0.1 µM): 114%
residual activity (NEK2 (human); compound 1.0 µM): 60%
residual activity (NEK2 (human); compound 10.0 µM): 27%
residual activity (MAPK15 (human); compound 0.1 µM): 23%
residual activity (MAPK15 (human); compound 1.0 µM): 32%
residual activity (MAPK15 (human); compound 10.0 µM): 23%
residual activity (CHEK2 (human); compound 0.1 µM): 83%
residual activity (CHEK2 (human); compound 1.0 µM): 40%
residual activity (CHEK2 (human); compound 10.0 µM): 28%
residual activity (RPS6KA1 KD1 KD2 (human); compound 0.1 µM): 102%
residual activity (RPS6KA1 KD1 KD2 (human); compound 1.0 µM): 93%
residual activity (RPS6KA1 KD1 KD2 (human); compound 10.0 µM): 38%
residual activity (SRC (human); compound 0.1 µM): 93%
residual activity (SRC (human); compound 1.0 µM): 102%
residual activity (SRC (human); compound 10.0 µM): 44%
residual activity (INSRR (human); compound 0.1 µM): 98%
residual activity (INSRR (human); compound 1.0 µM): 58%
residual activity (INSRR (human); compound 10.0 µM): 26%
residual activity (MAPK1 (human); compound 0.1 µM): 100%
residual activity (MAPK1 (human); compound 1.0 µM): 103%
residual activity (MAPK1 (human); compound 10.0 µM): 61%
residual activity (RPS6KA3 KD1 KD2 (human); compound 0.1 µM): 96%
residual activity (RPS6KA3 KD1 KD2 (human); compound 1.0 µM): 97%
residual activity (CSNK1D (human); compound 0.1 µM): 70%
residual activity (CSNK1D (human); compound 1.0 µM): 12%
residual activity (CSNK1D (human); compound 10.0 µM): 3%
residual activity (CSK (human); compound 0.1 µM): 99%
residual activity (CSK (human); compound 1.0 µM): 96%
residual activity (CSK (human); compound 10.0 µM): 98%
residual activity (MAPKAPK3 (human)): 101%
residual activity (PRKAA1 or PRKAA2 (rat); compound 0.1 µM): 49%
residual activity (PRKAA1 or PRKAA2 (rat); compound 1.0 µM): 2%
residual activity (PRKAA1 or PRKAA2 (rat); compound 10.0 µM): 1%
residual activity (PLK1 (human); compound 0.1 µM): 93%
residual activity (PLK1 (human); compound 1.0 µM): 31%
residual activity (PLK1 (human); compound 10.0 µM): 5%
residual activity (FLT1 (human); compound 0.1 µM): 98%
residual activity (FLT1 (human); compound 1.0 µM): 63%
residual activity (FLT1 (human); compound 10.0 µM): 15%
residual activity (EPHB1 (human)): 94%
residual activity (CDK2 CCNA2 (human); compound 0.1 µM): 106%
residual activity (CDK2 CCNA2 (human); compound 1.0 µM): 1%
residual activity (CDK2 CCNA2 (human); compound 10.0 µM): 0%
residual activity (TTK (human); compound 0.1 µM): 89%
residual activity (TTK (human); compound 1.0 µM): 79%
residual activity (TTK (human); compound 10.0 µM): 46%
residual activity ([1]; compound 0.1 µM): 100%
residual activity ([1]; compound 1.0 µM): 74%
residual activity ([1]; compound 10.0 µM): 24%
residual activity ([2]; compound 0.1 µM): 86%
residual activity ([2]; compound 1.0 µM): 98%
residual activity ([2]; compound 10.0 µM): 74%
residual activity (EPHB4 (human)): 122%
residual activity (SYK (human); compound 0.1 µM): 99%
residual activity (SYK (human); compound 1.0 µM): 66%
residual activity (SYK (human); compound 10.0 µM): 12%
residual activity (PRKACA (human); compound 0.1 µM): 91%
residual activity (PRKACA (human); compound 1.0 µM): 104%
residual activity (PRKACA (human); compound 10.0 µM): 97%
residual activity (MKNK2 (human); compound 0.1 µM): 68%
residual activity (MKNK2 (human); compound 1.0 µM): 14%
residual activity (MKNK2 (human); compound 10.0 µM): 4%
residual activity (MAPK14 (human); compound 0.1 µM): 94%
residual activity (MAPK14 (human); compound 1.0 µM): 119%
residual activity (MAPK14 (human); compound 10.0 µM): 106%

— the kinase profiling compilation of Christmann-Franck et al. (2016)
